Consider 2 compounds from ChEMBL document CHEMBL4038271, “Therapeutic potentials of baicalin and its aglycone, baicalein against inflammatory disorders” (Eur J Med Chem, 2017).

pIC50: −log10 of the molar value. ≈ marks a conversion by molar mass, not a printed value.

In data set [1] the test system is Mus musculus. As to the kind of experiment: Antiinflammatory activity in dextran sodium sulphate-induced C57BL/6 mouse colitis model assessed as disease activity index at 100 mg/kg, ig administered once daily pretreated for 3 days followed by DSS challenge and subsequent treatment for 7 days measured 24 hrs post last dose (reference value: 5.67 +/- 1.03). It counts as functional.

Data set [2] has as its system Mus musculus. The data set is described as follows: Anti-inflammatory activity in proteolipid protein 139-151/complete freund's adjuvant-induced SJL/J mouse autoimmune encephalomyelitis model assessed as reduction in clinical score at 5 to 10 mg/kg, ip administered once daily pretreated for 1 day followed by immunization and subsequent treatment for 3 days measured up to 6 days. It is filed as functional.

For data set [3], the system named is Mus musculus. As to the kind of experiment: Anti-inflammatory activity in adjuvant-induced C57BL/6 mouse arthritis model assessed as reduction in ankle swelling by measuring splenic Th17 cell population expansion at 100 mg/kg, ip administered once daily for 1 week starting from 14 days post-immunization measured by flow cytometry relative to control. It is filed as functional. Also noted: scale not given: the % may be the effect or the level left. (In general: Flow cytometry measures light scatter and fluorescence of single cells or particles in a stream.)

For data set [4], the system named is Rattus norvegicus. As to the kind of experiment: (§1) Oral bioavailability in Sprague-Dawley rat at 224 umol/kg administered via gastric gavage. It is filed as ADME, organism-based. To be noted: in vivo.
For data set [5], the system named is Rattus norvegicus. As to the kind of experiment: Anti-hyperplasia activity in carotid arterial balloon-injury-induced Sprague-Dawley rat neointimal hyperplasia model assessed as reduction in thickness of left carotid artery by measuring intima to media thickness ratio at 70 mg/kg administered once daily via gastric gavage from 3 days before balloon injury to 28 days after the injury measured post last dose by haematoxylin/eosin staining based assay relative to control. It is filed as functional. Also noted: scale not given: the % may be the effect or the level left.

The test system of data set [6] is Rattus norvegicus. As to the kind of experiment: In vivo inhibition of CYP3A4 in Sprague-Dawley rat assessed as increase in cyclosporine AUC at 112 uM/kg, po administered via gastric gavage coadministered with 2.5 mg/kg cyclosporine measured after 540 mins by monoclonal fluorescence polarization assay relative to control. It is filed as ADME, organism-based. Also noted: scale not given: the % may be the effect or the level left. The following applies: 9 h. In general terms: In fluorescence polarisation assays a small probe gives low polarisation when free and higher when bound to something large.

The subject of data set [7] is Rattus norvegicus. As to the kind of experiment: In vivo inhibition of CYP3A4 in Sprague-Dawley rat assessed as increase in cyclosporine Cmax at 112 uM/kg, po administered via gastric gavage coadministered with 2.5 mg/kg cyclosporine measured after 540 mins by monoclonal fluorescence polarization assay relative to control. It counts as ADME, organism-based. On the set-up: scale not given: the % may be the effect or the level left. To be noted: 9 h.

In data set [8] the test system is Rattus norvegicus. The data set is described as follows: In vivo inhibition of P-gp in Sprague-Dawley rat assessed as increase in cyclosporine AUC at 112 uM/kg, po administered via gastric gavage coadministered with 2.5 mg/kg cyclosporine measured after 540 mins by monoclonal fluorescence polarization assay relative to control. It is filed as functional. Also noted: scale not given: the % may be the effect or the level left.

Data set [9] is described as follows: Apparent permeability of the compound. It is filed as physicochemical. To be noted: not told.
In data set [10] the test system is Rattus norvegicus. The data set is described as follows: In vivo inhibition of CYP1A2 in Sprague-Dawley rat assessed as increase in unbound phenacetin level in plasma at 450 mg/kg, iv coadministered with phenacetin by UV-HPLC method relative to phenacetin alone. It is filed as ADME, organism-based.
Data set [11] has as its system Rattus norvegicus. The data set is described as follows: In vivo inhibition of P-gp in Sprague-Dawley rat assessed as increase in cyclosporine Cmax at 112 uM/kg, po administered via gastric gavage coadministered with 2.5 mg/kg cyclosporine measured after 540 mins by monoclonal fluorescence polarization assay relative to control. It counts as functional. On the set-up: scale not given: the % may be the effect or the level left.

A short description of data set [12]: Tmax in Sprague-Dawley rat at 224 umol/kg, po administered via gastric gavage. It is filed as ADME, organism-based. The following applies: in vivo.
Data set [13] is described as follows: Solubility of the compound in water. The following applies: buffer. It is filed as physicochemical.
Data set [14] relates to Rattus norvegicus. The data set is described as follows: In vivo inhibition of P-gp in Sprague-Dawley rat assessed as increase in cyclosporine AUC at 112 uM/kg, po administered via gastric gavage coadministered with 2.5 mg/kg cyclosporine measured after 720 to 1440 mins by monoclonal fluorescence polarization assay relative to control. It counts as functional. Also noted: scale not given: the % may be the effect or the level left.

Data set [15] deals with Rattus norvegicus. As to the kind of experiment: Neuroprotective activity in 6-OHDA-induced lesioned Sprague-Dawley rat assessed as increase in TH-immunopositive neurons at 200 mg/kg, ig administered once daily for 15 days measured on day 42 post 6-OHDA lesion induction by immunohistochemical analysis relative to control. It is filed as functional.
In data set [16] the test system is DU-145. As to the kind of experiment: Anti-tumor activity against human DU145 cells xenografted in SCID mouse assessed as tumor volume at 20 mg/kg, po administered once daily for 28 days measured every seven days during compound dosing (reference value: 314 +/- 54.8 mm3). It counts as functional.
The subject of data set [17] is Rattus norvegicus. The data set is described as follows: In vivo inhibition of P-gp in Sprague-Dawley rat assessed as increase in cyclosporine Cmax at 112 uM/kg, po administered via gastric gavage coadministered with 2.5 mg/kg cyclosporine measured after 720 to 1440 mins by monoclonal fluorescence polarization assay relative to control. It is filed as functional. On the set-up: scale not given: the % may be the effect or the level left.

Data set [18] is described as follows: as §1. It counts as ADME, organism-based. The following applies: Sprague-Dawley, in vivo, 224 umol/kg.
Data set [19] relates to NCI-H460. As to the kind of experiment: Cytotoxicity against human H460 cells assessed as reduction in cell viability at 50 uM after 72 hrs by trypan blue staining based assay relative to control. It is filed as functional.
For data set [20], the system named is DU-145. As to the kind of experiment: Anti-tumor activity against human DU145 cells xenografted in SCID mouse assessed as tumor volume at 30 mg/kg, po administered once daily for 28 days measured every seven days during compound dosing (reference value: 314 +/- 54.8 mm3). It is filed as functional. Background: Xenograft models place foreign cells or tissue in a host animal.

Data set [21] deals with Cytochrome P450 3A4 (Homo sapiens, UniProt P08684). As to the kind of experiment: Inhibition of human CYP3A4 expressed in baculovirus infected insect cells using 7-benzyloxy-4-trifluoromethylcoumarin as substrate measured after 45 mins in presence of NADPH by spectrofluorometric method. It is filed as ADME.
Cytochrome P450 3A4, sequence (P08684 whole entry): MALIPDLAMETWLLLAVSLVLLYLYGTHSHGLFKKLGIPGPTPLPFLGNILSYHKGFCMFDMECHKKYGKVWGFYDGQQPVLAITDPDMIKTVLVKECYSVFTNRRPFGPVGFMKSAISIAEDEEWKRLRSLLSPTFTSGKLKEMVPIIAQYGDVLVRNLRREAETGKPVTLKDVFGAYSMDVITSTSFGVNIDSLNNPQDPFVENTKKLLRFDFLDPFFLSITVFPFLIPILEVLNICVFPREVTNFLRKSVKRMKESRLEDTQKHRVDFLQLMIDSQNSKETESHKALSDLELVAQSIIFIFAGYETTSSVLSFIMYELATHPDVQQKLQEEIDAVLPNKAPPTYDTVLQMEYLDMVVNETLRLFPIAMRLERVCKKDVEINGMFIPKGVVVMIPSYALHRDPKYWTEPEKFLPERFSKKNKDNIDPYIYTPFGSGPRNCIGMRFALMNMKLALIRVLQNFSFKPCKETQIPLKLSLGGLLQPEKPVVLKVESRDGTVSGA
The test system of data set [22] is DU-145. The data set is described as follows: Anti-tumor activity against human DU145 cells xenografted in SCID mouse assessed as tumor volume at 10 mg/kg, po administered once daily for 28 days measured every seven days during compound dosing (reference value: 314 +/- 54.8 mm3). It counts as functional.
In data set [23] the test system is Rattus norvegicus. As to the kind of experiment: In vivo inhibition of CYP3A4 in Sprague-Dawley rat assessed as increase in cyclosporine Cmax at 112 uM/kg, po administered via gastric gavage coadministered with 2.5 mg/kg cyclosporine measured after 720 to 1440 mins by monoclonal fluorescence polarization assay relative to control. It is filed as ADME, organism-based. Also noted: scale not given: the % may be the effect or the level left.

The test system of data set [24] is Rattus norvegicus. As to the kind of experiment: In vivo inhibition of P-gp in Sprague-Dawley rat assessed as increase in nimodipine AUC at 8 mg/kg, po pretreated for 30 mins followed by nimodipine addition measured after 36 hrs by HPLC method relative to nimodipine alone. It counts as functional.
Data set [25] concerns SH-SY5Y. The data set is described as follows: Neuroprotective activity against 6-OHDA-induced cell death in human SH-SY5Y cells assessed as apoptotic cells at 5 ug/ml pretreated for 1 hr followed by 6-OHDA challenge measured after 24 hrs by propidium iodide/RNase staining based flow cytometry (reference value: 31.56 %). It counts as functional.
For data set [26], the system named is Rattus norvegicus. As to the kind of experiment: In vivo inhibition of P-gp in Sprague-Dawley rat assessed as increase in nimodipine AUC at 2 mg/kg, po pretreated for 30 mins followed by nimodipine addition measured after 36 hrs by HPLC method relative to nimodipine alone. It counts as functional.
For data set [27], the system named is Rattus norvegicus. The data set is described as follows: In vivo inhibition of CYP3A4 in Sprague-Dawley rat assessed as increase in cyclosporine AUC at 112 uM/kg, po administered via gastric gavage coadministered with 2.5 mg/kg cyclosporine measured after 720 to 1440 mins by monoclonal fluorescence polarization assay relative to control. It is filed as ADME, organism-based. On the set-up: scale not given: the % may be the effect or the level left.

Data set [28] concerns HMC1. As to the kind of experiment: Cytotoxicity against HMC1 cells assessed as reduction in cell viability at 1.8 to 30 uM after 24 hrs by trypan blue assay relative to control. It counts as cell-based. To be noted: human, hmc1, 24 h.
Data set [29] concerns SH-SY5Y. As to the kind of experiment: Neuroprotective activity against 6-OHDA-induced cell death in human SH-SY5Y cells assessed as apoptotic cells at 0.5 ug/ml pretreated for 1 hr followed by 6-OHDA challenge measured after 24 hrs by propidium iodide/RNase staining based flow cytometry (reference value: 31.56 %). It is filed as functional.

Regarding `O=C(O)[C@H]1O[C@@H](Oc2cc3oc(-c4ccccc4)cc(=O)c3c(O)c2O)[C@H](O)[C@@H](O)[C@@H]1O` [BAICALIN], the Activity_index in data set [1] stood at 3.03. In addition, the Activity was 2.2 in data set [2]; 40% in [3]; 55% in data set [5]; 685.3% in data set [6]; 408.1% in data set [7]; 685.3% in data set [8]. In data set [11], the Activity is given as 408.1%. In addition, the F in [4] is 62%. Besides, the apparent permeability coefficient (Papp) in [9] was found to be 0.037 ×10⁻⁶ cm/s. For the same compound, the “fold change (FC)” value in data set [10] came to 2. The time to peak (Tmax) in data set [12] was 6.6 h. In data set [13], this compound registered a solubility of 52 µg/mL (≈ 116 µM).
With `O=c1cc(-c2ccccc2)oc2cc(O)c(O)c(O)c12` [BAICALEIN], the Activity in [14] was determined as 150.2%; in [15] it was 265.52%; in data set [16], 114.2 mm3; in data set [17], 87.5%; in [19] it was 42%; in data set [20] it was 183 mm3. Moreover, the Activity in [22] is 144.5 mm3; in data set [23] it was 87.5%; in data set [25], 21.61%; in [27], 150.2%; in [28] it was 93 to 95%; in [29], 18.9%. Besides, the bioavailability in data set [18] amounted to 0%. Further, in data set [21], the pIC50 was 5.04. For the same compound, the “fold change (FC)” value in data set [24] came out at 1.6; in data set [26] it was 1.4. Moreover, the apparent permeability coefficient (Papp) in data set [9] worked out at 17 ×10⁻⁶ cm/s. Besides, the Tmax in [12] is 0.167 h.

For orientation: Papp means the rate of passage across a membrane or cell layer, normalised by area and donor concentration. For orientation: Tmax means the time at which the peak concentration occurs. For orientation: solubility means the concentration that dissolves in the medium under given conditions. A word on the bioavailability: it is dose-corrected exposure relative to a reference, in per cent. Usually pIC50 stands for −log10 of the IC50, conventionally taken in molar units.
